# Results: publication PMC5828182, “Inhibition of nuclear factor of activated T cells (NFAT) c3 activation attenuates acute lung injury and pulmonary edema in murine models of sepsis” (Oncotarget, 2018)
# What was measured:
# [1] = system: NFAT dependent gene expression; conditions: liver allograft patients, after 8–12 months; cited from earlier work
# [2] = system: NFAT; conditions: cited from earlier work
# From the text: (§1) Research efforts to identify NFAT inhibitors span over the last two decades but so far none of them performed well in the clinical trials.
# [3] = system: NFATc3−/− and wild type mice, severe CLP sepsis; assay: survival after severe (lethal) CLP; format: in vivo, mouse
# Procedure: Figure 5 NFATc3^−/− mice show improved arterial Oxygen saturation and survival compared to wild type mice (A) NFATc3^−/− and wild type mice (N = 5) were injected with 15 mg/kg LPS i.p and the arterial oxygen saturation was measured using STARR Life Sciences Corp. Pulse Oximeter. (B–C) NFATc3^−/− and wild type mice (N = 5 sham control group; N = 10 CLP group) were subjected to severe CLP, maintained on regular or imipenem monohydrate supplemented water and the survival was monitored over a period of 96 h. A^* p ≤ 0.001 WT-LPS vs. WT-Control; ^** p ≤ 0.01 NFATc3^−/− LPS vs. WT-LPS.
# Cecal ligation puncture (CLP) sepsis models were established according to Cuenca et al.. In an anesthetized mouse, the cecum is exposed and ligated below ileo-cecal valve and two perforations were made across the cecum using 21G needle. The cecum is then compressed to express minute amount of fecal material. To establish moderate CLP sepsis the cecum was ligated at less than 1.0 cm from the distal end and for severe sepsis about 2.0 cm of the cecum from distal end was ligated. Pulmonary edema, arterial oxygenation, and inflammation were evaluated in moderate CLP sepsis models. […] LPS (15 mg/kg) or the same volume of normal saline was administered into intraperitoneal cavity of WT or NFATc3^−/− mice and arterial oxygenation was measured by pulse oximetry. […]
# [4] = system: experimental colitis model in mice; conditions: cited from earlier work
# [5] = system: islet allografts between BL/6 and C3H/HeN mouse strains; conditions: BL/6 and C3H/HeN mice; cited from earlier work
# [6] = system: mouse models of Alzheimer's disease; conditions: mice; cited from earlier work
# [7] = system: diabetic db/db mice; conditions: cited from earlier work
# [8] = system: calcineurin; conditions: derivative of cyclosporine; cited from earlier work
# From the text: as §1
# [9] = system: plaque psoriasis; conditions: cited from earlier work
# From the text: as §1
compound,measurement,setting,value
C=CC[C@@H]1/C=C(\C)C[C@H](C)C[C@H](OC)[C@H]2O[C@@](O)(C(=O)C(=O)N3CCCC[C@H]3C(=O)O[C@H](/C(C)=C/[C@@H]3CC[C@@H](O)[C@H](OC)C3)[C@H](C)[C@@H](O)CC1=O)[C@H](C)C[C@@H]2OC [Tacrolimus],NFAT dependent gene expression,[1],increased NFAT dependent gene expression
COc1cc(C[C@H]2C(=O)OC[C@@H]2Cc2ccc(OC)c(OC)c2)ccc1O [Arctigenin],NFAT inhibition,[2],variable degree of NFAT inhibition
O=c1c(O)c(-c2ccc(O)cc2)oc2cc(O)cc(O)c12 [kaempferol],NFAT inhibition,[2],variable degree of NFAT inhibition
Cc1cc2c(C(C)C)c(O)c(O)c(C=O)c2c(O)c1-c1c(C)cc2c(C(C)C)c(O)c(O)c(C=O)c2c1O [gossypol],NFAT inhibition,[2],variable degree of NFAT inhibition
"C[C@@H](O)[C@H]1C(=O)N2C(C(=O)O)=C(SCCN=CN)C[C@H]12 [imipenem, imipenem monohydrate]",survival,"[3]; NFATc3−/− mice, imipenem in drinking water, monitored over 96 h, N = 10 CLP group",60%
same,lethality / survival of WT mice,"[3]; WT mice, imipenem (broad-spectrum antibiotic) in drinking water, 96 h",not improved any further
11R-VIVIT,effect in experimental colitis,[4],protective effect
same,immunosuppression in islet allografts,[5],improved immunosuppression
same,microgliosis and Amyloid β peptide (Aβ) plaque load,[6],attenuated
same,albuminuria,[7],markedly attenuates
same,mesangial matrix expansion and podocyte injury,[7],alleviated
C=C/C=C/C[C@@H](C)[C@@H](O)[C@H]1C(=O)N[C@@H](CC)C(=O)N(C)CC(=O)N(C)[C@@H](CC(C)C)C(=O)N[C@@H](C(C)C)C(=O)N(C)[C@@H](CC(C)C)C(=O)N[C@@H](C)C(=O)N[C@H](C)C(=O)N(C)[C@@H](CC(C)C)C(=O)N(C)[C@@H](CC(C)C)C(=O)N(C)[C@@H](C(C)C)C(=O)N1C [ISA247],calcineurin inhibition,[8],more potent and effectively inhibited Calcineurin
same,phase III outcome,[9],did not result in to any commercial products so far
